In test [1] the test system is P. falciparum (3D7 strain). In words: In vitro antiplasmodial activity, P. falciparum blood-stage parasites, SYBR Green I. It is filed as cell-based, Plasmodium falciparum. As for the experimental part: The P. falciparum strains were cultivated in human blood cells (hRBC) O^+, while P. knowlesi was cultivated in rhesus red blood cells (rRBC) as described. P. falciparum complete RPMI (consisting of RPMI-1640, supplemented with 0.2% NaHCO3, 25 mM HEPES (pH 7.4), 11 mM D-glucose, 10 mg/L hypoxanthine, 25 mg/L gentamicin, and 0.5% (m/v) AlbuMAX II). The parasitemias of these cultures were maintained below 10% with 2.5% hematocrit. P. knowlesi complete RPMI (consisting of RPMI-1640 supplemented with 25 mM HEPES, […] hypoxanthine, 0.26% NaHCO3, 10 mg/L gentamicin, and 1% Albumax II). This culture was maintained with RBCs up to 5% hematocrit. The culture medium was changed daily, and all cultures were maintained under a 90% N2/5% CO2/5% O2 gas mixture at 37 °C. All compounds were purchased from Sigma-Aldrich (Cotia, Brazil).
The antiplasmodial activity of brussonol and derivatives was evaluated against P. falciparum blood parasites 3D7(chloroquine-sensitive). The parasites were synchronized through sterile 5% (m/v) D-sorbitol treatment over 10 min at 37 °C for the enrichment of ring stages. Centrifugation 600× g over 5 min was used to pellet the cultures. The parasitemia was determined by microscope analysis of thin blood smears stained with Giemsa 10% (v/v) after fixation with methanol. The initial parasitemia was calculated for 1000 red blood cells (RBCs), and cultures were diluted to 0.5% parasitemia and 2% hematocrit by the addition of the appropriate volumes of blood and medium. A total of 180 µL aliquots of parasites were distributed into 96-well plates followed by the addition of 20 µL of previously prepared aliquots of ten-fold concentrated compounds, the range of concentrations tested was 10–1.53 µM. Negative and positive control wells, which correspond to non-parasitized erythrocytes and parasite cultures in the absence of compounds, were set in parallel. The DMSO concentration was maintained below 0.05% (v/v) for all compounds except for brussonol, which was 0.5%. The plates were incubated for 72 h at 37 °C in a humidified incubator with a gas mixture of 90% N2, 5% O2, and 5% CO2. Each test was performed in duplicates, and the results were compared with the control cultures. Once completed incubation, the culture medium was removed, and the cells were resuspended in 100 µL PBS (116 mM NaCl, 10 mM NaH2PO4, 3 mM KH2PO4) and lysed with 100 µL lysis buffer (20 mM Tris base, 5 mM EDTA, 0.0008% (v/v) Triton X-100, 0.008% (m/v) saponin, pH 8.0) containing 0.002% (v/v) SYBR Green I. Plates were incubated for 30 min at room temperature, and a SpectraMAX Gemini EM plate reader (Molecular Devices Corp., Sunnyvale, CA) was used to determine the fluorescence corresponding to parasitic density (excitation at 485 nm, emission at 535 nm). The half-maximal inhibitory concentration (IC50^Pf) was determined by non-linear regression analysis of the resulting concentration–response curve using the software GraphPad Prism version 8.0.1 for Windows, GraphPad Software, San Diego, California USA, www.graphpad.com, accessed on 3 March 2022”.

In test [2] the test system is P. falciparum TM90C6B strain. Description: Resistance assessment, TM90C6B strain. It is filed as cell-based. As to conditions: Plasmodium falciparum.
The subject of test [3] is cytosolic Ca^2+ in P. falciparum. Description: [Ca2+]cyt measurements in isolated parasites loaded with Fluo-4AM. The test is classed as cell-based, Plasmodium falciparum. As for the experimental part: One of the compounds identified in the structural similarity search was the cyclopiazonic acid (CPA) (Figure 8a). […] Because of that, brussonol activity on the modulation of the SERCA pump was investigated. To assess the effect of brussonol on calcium mobilization in P. falciparum intraerythrocytic stages, isolated parasites loaded with Fluo-4-AM were exposed to 10 μM brussonol in MOPS Ca^2+ buffer. […] To verify if the brussonol-elicited [Ca^2+]cyt increment originated from the endoplasmic reticulum (ER), targeting the PfSERCA pump, CPA was added before the addition of brussonol. […] In the brussonol-pretreated parasites, the addition of CPA still increased the cytosolic Ca^2 + level (30 ± 5 nM) (Figure 8d).
Isolated parasites were incubated for 1 h at 37 °C with 5 μM of Fluo-4AM in 1 mL MOPS buffer (116 mM NaCl, 5.4 mM KCl, 0.8 mM MgSO4, 5.5 mM D-glucose, 50 mM MOPS, and 2 mM CaCl2, pH 7.2), with 1 mM probenecid to minimize compartmentalization and extrusion of probe. The parasites were washed three times with the same buffer and transferred to a quartz cuvette. Intracellular calcium was measured continuously using a Hitachi F-7000 spectrofluorimeter (Tokyo, Japan) by measurement of the fluorescence (λex = 488 nm and λem = 530 nm) at 37 °C, under agitation. When indicated, 10 µM of cyclopiazonic acid (CPA) or 10 µM of brussonol were added to the cuvette. Maximal fluorescence (Fmax) was determined after the lysis of with digitonin 0.15% (m/v), and minimal fluorescence (Fmin) was determined by adding 25 mM EGTA in 3 M Tris, pH 8.8, until no further decrease in fluorescence was observed. The cytosolic calcium concentration ([Ca^2+]cyt) was calculated from the fluorescence data (F) using a Kd value of 345 nM using the formula:Ca^2 +cyt = 345 × [(F − Fmin)/(Fmax − F)]
The results (n = 2) were analyzed through One-Way ANOVA with Tukey post-test. All compounds described here were purchased from Sigma-Aldrich (verificar local).

Broadly, the IC50 is the midpoint of a concentration-inhibition curve.

Where two headings read alike, the source gives them in different places.

Turning to `CC(C)c1cc2c(c(O)c1O)C[C@@]13CCCC(C)(C)[C@@H]1C[C@@H]2O3` [Compound 1, brussonol], the IC50 was 16 ± 2 µM in test [1] (3D7 strain, 72 h, SYBR Green I, read-out: IC50^Pf); 13 ± 2 µM in test [1] (Plasmodium falciparum, 3D7, 3D7 strain, Table 2 strain panel, read-out: IC50); around 20 µM in test [1] (Plasmodium falciparum, 3D7, 72 h, 3D7 strain, 72 h, SYBR Green I, read-out: IC50^Pf); 7 ± 2 µM in test [2]. In test [3] (10 µM brussonol added after 10 µM CPA reached a plateau), the “[Ca^2+]cyt rise after CPA pretreatment” value is recorded as 19 ± 8 nM. Further, the “[Ca^2+]cyt rise” value in test [3] (10 µM compound alone, MOPS Ca^2+ buffer, relative to basal level) amounted to 19 ± 4 nM.

(Values after publication PMC9321043, “Synthesis, Structure–Activity Relationships, and Parasitological Profiling of Brussonol Derivatives as New Plasmodium falciparum Inhibitors” (Pharmaceuticals, 2022).)
